Assay results from paper PMC7998250, “Temperate Zone Plant Natural Products—A Novel Resource for Activity against Tropical Parasitic Diseases” (Pharmaceuticals, 2021).
Where two headings read alike, the source gives them in different places.

How the values were obtained:
[1] = tested on: T. evansi bloodstream form; assay: Initial screen, T. evansi bloodstream form, Alamar Blue; type: cell-based, Trypanosoma evansi; details: Trypanosoma evansi; for activity at 1 µM: initial screen; for inhibition of growth at 1 µM: x = initial hit, read-out: initial hit T.e
Experimental: (§1) 634 compounds from the PhytoQuest Phytopure temperate plant natural product library were screened for growth inhibitory activity against L. mexicana axenic amastigotes, T. brucei bloodstream form, intraerythrocytic asexual P. falciparum (at 2 μM) and T. evansi bloodstream form parasites (at 1 μM). […] Our initial hits were defined as reducing growth of the parasite by ≥50%.
(§2) L. mexicana strain MNYC/BZ/62/M379 and L. donovani strain LdBOB (a clonal line from strain MHOM/SD/62/1S-CL2) were maintained in vitro in the procyclic promastigote stage. Parasites were cultivated at 26 °C in Schneider’s medium (Gibco) pH 7.0 containing 10% FBS, 100 U/mL penicillin (Lonza) and 100 μg/mL streptomycin (Lonza) as previously described. Differentiation into axenic amastigotes was performed as described previously. Briefly, axenic amastigotes were cultivated at 32 °C in Schneider’s medium pH 5.5 containing 10% FBS, 100 U/mL penicillin (Lonza) and 100 μg/mL streptomycin (Lonza). Bloodstream form T. brucei brucei strain Lister 427 and T. evansi strain Antat 3/3 [59] were maintained in vitro at 37 °C with 5% (v/v) CO2 in HMI-11 medium supplemented with 10% FBS, as described elsewhere. Intraerythrocytic cultures of P. falciparum Dd2^Luc strain [62] were maintained at 37 °C in a 1% O2:3% CO2:96% N2 atmosphere in RPMI-1640 containing 37.5 mM HEPES, 5 mM NaOH, 10 mM D-glucose, 2 mM L-glutamine, 100 μM hypoxanthine, […] gentamicin sulfate, 5% human serum and 5% albumax-II and 2% haematocrit erythrocytes. When required, cultures were synchronised to ring stages using the sorbitol lysis method. Preliminary cytotoxicity screening was assessed using HepG2 cells. These cells were maintained in vitro at 37 °C with 5% (v/v) CO2 in DMEM (Sigma) pH 7 supplemented with 10% FBS, 100 U/mL penicillin (Lonza) and 100 μg/mL streptomycin (Lonza), as previously described. The human monocyte cell line THP-1 [68] was maintained in vitro by culturing at 37 °C with 5% (v/v) CO2 in complete RPMI medium (Dutch modified RPMI-1640 (Gibco) containing 10% FBS and 2 mM L-glutamine (Gibco)). Differentiation of THP-1 cells into macrophages was performed by seeding 2.5 × 10^5 cells/mL in complete RPMI media, supplemented with 20 ng/mL phorbol 12-myristate 13-acetate (PMA), followed by incubation at 37 °C with 5% (v/v) CO2 for 24 h.
(§3) The library was provided as 634 non-polar compounds (1 mg/mL in DMSO). Initial screening was performed in a 96-well plate with 200 μL of parasite culture. The initial screen used each compound at a final concentration of 2 μM for L. mexicana axenic amastigotes, T. brucei and P. falciparum, and at 1 μM for T. evansi. L. mexicana axenic amastigotes were plated at 1 × 10^6 cells/mL, incubated for 72 h, and the Alamar Blue assay was used to assess parasite growth. Each compound was tested in triplicate, with two biological replicates (n = 6). T. brucei and T. evansi were plated at 1×10^5 cells/mL for 48 h, and the Alamar Blue assay was used to assess parasite growth. Each compound was tested in triplicate with two biological replicates (n = 6). Intraerythrocytic P. falciparum in the trophozoite stage were seeded at 0.5% parasitaemia and 2% haematocrit for 48 h, and the Malaria SYBR-Green I fluorescence assay was used to assess parasite growth. Each compound was tested in duplicate with two biological replicates (n = 4). Negative controls comprised an equivalent volume of DMSO (equivalent of 1% v/v) to normalise the growth data. Data points >100% growth and <0% growth were tabulated as 100% and 0%, respectively. Some compounds were not tested in all parasite lines as there was insufficient material remaining.

[2] = tested on: L. mexicana axenic amastigotes; assay: Initial screen, L. mexicana axenic amastigotes, Alamar Blue; type: cell-based, Leishmania mexicana
Experimental: as §1, with “≥50%. […]” for “≥50%.”
as §3, with “The PhytoQuest Phytopure library is a commercially available collection of purified compounds isolated predominantly from temperate zone plants, with structures confirmed by NMR and mass spectrometry. The library” for “The library”

[3] = tested on: P. falciparum Dd2Luc intraerythrocytic trophozoites; assay: Initial screen, intraerythrocytic P. falciparum, Malaria SYBR-Green I fluorescence assay; type: cell-based, Plasmodium falciparum
Experimental: as §1, with “≥50%. […]” for “≥50%.”
as §3, with “The PhytoQuest Phytopure library is a commercially available collection of purified compounds isolated predominantly from temperate zone plants, with structures confirmed by NMR and mass spectrometry. The library” for “The library”

[4] = tested on: T. brucei bloodstream form; assay: Initial screen, T. brucei bloodstream form, Alamar Blue; type: cell-based, Trypanosoma brucei brucei; details: for activity at 2 µM / inhibition of growth at 2 µM: Trypanosoma brucei; for activity at 2 µM: initial screen; for initial hit against T. brucei / inhibition of growth at 2 µM: 2 μM; for initial hit against T. brucei: growth reduced by ≥50%; for inhibition of growth at 2 µM: x = initial hit, read-out: initial hit T.b
Experimental: as §1, §2, §3

T. brucei = assay: Concentration-response EC50, T. brucei; type: cell-based, Trypanosoma brucei brucei; details: Trypanosoma brucei, 48 h, bloodstream form, 48 h; read-out: T. brucei EC50
Experimental: EC50 values were determined by serial two-fold dilution of each compound in 96 well plates. Culture conditions and viability assays were as stated for the initial screen, with some exceptions. L. mexicana and L. donovani axenic amastigotes were seeded at 2 × 10^6 cell/s mL, T. brucei and T. evansi were seeded at 2 × 10^5 cells/mL. For cytotoxicity studies, HepG2 cells were seeded at 1 × 10^5 cells/mL, incubated for 48 h and viability was assessed using the Alamar Blue assay [66, 67]. […] Normalised growth and viability data (compared to untreated controls) were plotted against Log10 concentration to estimate EC50 in GraphPad (Prism v6).

in vitro = details: human, pH 7, HepG2 CC50
Description: Initial hits from the parasite panel screen were taken forward in log concentration versus normalised response assays to estimate the half maximal effective concentration (EC50) in hit species as well as the half maximal cytotoxic concentrations (CC50) in the human hepatoma cell line HepG2 as a preliminary test for selectivity. Using CC50/EC50 to define the selectivity index (SI), the selectivity for each compound in a defined species compared to a human cell line was estimated and compared to the EC50 (Figure 3).
as §2
EC50 values were determined by serial two-fold dilution of each compound in 96 well plates. Culture conditions and viability assays were as stated for the initial screen, with some exceptions. L. mexicana and L. donovani axenic amastigotes were seeded at 2 × 10^6 cell/s mL, T. brucei and T. evansi were seeded at 2 × 10^5 cells/mL. For cytotoxicity studies, HepG2 cells were seeded at 1 × 10^5 cells/mL, incubated for 48 h and viability was assessed using the Alamar Blue assay. Differentiated THP-1 cells were seeded at 5 × 10^4 cells/mL, incubated for 48 h, and viability was assessed by the Alamar Blue assay. Normalised growth and viability data (compared to untreated controls) were plotted against Log10 concentration to estimate EC50 in GraphPad (Prism v6). Bioluminescence relative rate of kill assays in asexual intraerythrocytic P. falciparum Dd2^Luc were carried out as described.

[5] = compared to a normalised control with same concentration of DMSO solvent, read-out: mean % growth, T. evansi
[6] = Leishmania mexicana, read-out: mean % growth, L. mexicana, initial screen, compared to a normalised control with same concentration of DMSO solvent
[7] = Plasmodium falciparum, 48 h, read-out: mean % growth, P. falciparum, initial screen, compared to a normalised control with same concentration of DMSO solvent
[8] = compared to a normalised control with same concentration of DMSO solvent, read-out: mean % growth, T. b. brucei
[9] = mean % growth compared to a normalised control with same concentration of DMSO solvent, read-out: % growth T. evansi
[10] = Leishmania mexicana, read-out: % growth L. mexicana, mean % growth compared to a normalised control with same concentration of DMSO solvent, initial screen
[11] = Plasmodium falciparum, 48 h, read-out: %growth P. falciparum, mean % growth compared to a normalised control with same concentration of DMSO solvent, initial screen
[12] = mean % growth compared to a normalised control with same concentration of DMSO solvent, read-out: % growth T. b. brucei

| SMILES | activity at 1 µM [1, 5] [%] | inhibition of growth at 1 µM [1] [%] | activity at 2 µM [2, 6] [%] | activity at 2 µM [3, 7] [%] | activity at 2 µM [4, 8] [%] | EC50 (T. brucei) [nM] | initial hit against T. brucei [4] | inhibition of growth at 2 µM [4] [%] | CC50 at 48 h (in vitro) [µM] | activity at 1 µM [1, 9] [%] | activity at 2 µM [2, 10] [%] | activity at 2 µM [3, 11] [%] | activity at 2 µM [4, 12] [%] | decrease of L. mexicana survival ([2]; 2 μM, 72 h) [%] | activity against P. falciparum in screen ([3]; 2 μM) | initial hit against L. mexicana ([2]; 2 μM, growth inhibited by ≥80%) | inhibition of growth at 2 µM ([2]; Leishmania mexicana, 2 μM, x = initial hit, read-out: initial hit L.m) [%] | inhibition of growth at 2 µM ([3]; Plasmodium falciparum, 48 h, read-out: initial hit P.f) [%] |
| --- | --- | --- | --- | --- | --- | --- | --- | --- | --- | --- | --- | --- | --- | --- | --- | --- | --- | --- |
| C/C1=C\C2OC(=O)C(=O)C2CC/C(C(=O)OC2OC(CO)C(O)C(O)C2O)=C\CC1 (stereo not shown) [Compound 700458] | 48.2 | > 50 | 48.5 | 119 | 78.2 | – | – | – | – | – | – | – | – | – | – | – | – | – |
| COc1cc2ccc(=O)oc2c(OC)c1OCC1C(C)=CCC2C(C)(C)C(O)CCC12C (stereo not shown) [Compound 700867] | 126 | – | 60.7 | 104 | 19.3 | 2600 | initial hits | > 50 | 27 | – | – | – | – | – | – | – | – | – |
| CC(C)c1ccc2c(c1)CCC1C(CCCC1C(=O)O)O2 (stereo not shown) [Compound 700110] | – | > 50 | – | – | – | – | – | – | – | 47.9 | 52.4 | 105 | 87.2 | – | – | – | – | – |
| CC(C)c1ccc2c(c1)CCC1C(C)(C=O)CCCC21C (stereo not shown) [Compound 700014] | – | – | – | – | – | 1100 | initial hits | > 50 | 40 | 93 | 56.9 | 107 | 25.2 | ~70 | neither 700014 or 700063 showed activity against P. falciparum | – | – | – |
| C#CC#CCc1ccccc1C(=O)OC [Compound 701248] | – | – | 19.2 | 100 | 60.9 | – | – | – | – | – | – | – | – | – | – | initial hits | > 80 | – |
| CC(=O)OC1C(O)C(C)OC(OC2C(OC(=O)C3C[C@@H]4OC5(CC(OC(=O)/C=C/c6ccccc6)[C@@H](C)CO5)C(O)(CO)[C@@H]4CO3)OC(C)C(O)C2OC(C)=O)C1O (single isomer, unassigned) [Compound 700047] | – | – | – | – | – | – | – | – | – | 90.2 | 60 | 41.8 | 61 | – | – | – | – | > 50 |
| O=C1C=CC(O)(c2cc(=O)c3c(O)cc(O)cc3o2)C=C1 [Compound 700586] | – | – | 56.5 | 77 | 3.1 | 630 | initial hits | > 50 | 3.6 | – | – | – | – | – | – | – | – | – |
| CC(C)C(=O)OC1C2C(CC(C)C3C=CC(=O)C31C)OC(=O)C2C (stereo not shown) [Compound 701156] | 113 | – | 52.7 | 93.7 | 24.3 | 990 | initial hits | > 50 | – | – | – | – | – | – | – | – | – | – |
